For 77 molecules, logP and logD results are on record in the SangsterLogP compilation.

Series [1] is described as follows: method code SF-GLC, from DOI: 10.1016/s0003-2670(00)84505-5.
A short description of series [2]: method code SF-AS, from DOI: 10.1016/0045-6535(84)90003-1.
Series [3] is described as follows: method code SF, from DOI: 10.1016/0378-5173(87)90234-1.
Experiment in series [4]: not given
This is another data set of the same source.

Experiment in series [5]: not given
The source holds these as a separate data set.

Series [6] is described as follows: method code SF-AS, from DOI: 10.1016/j.ejmech.2003.11.003, PMID: 14987836.
Series [7] is described as follows: method code SF-AS, from DOI: 10.1007/s001289900721, PMID: 9657823.
Experiment in series [8]: not given
This is another data set of the same source.

For series [9] the following is noted: pH 5.6.
A short description of series [10]: method code SF-RC, from PMID: 3794812.
Series [11] is described as follows: method code SF-AS, from DOI: 10.1111/j.2042-7158.1989.tb06384.x, PMID: 2576447. To be noted: pH 7.4.
Experiment in series [12]: not given
This is another data set of the same source.

The nature of series [13]: method code SF-RC, from DOI: 10.1016/0014-2999(79)90231-0, PMID: 527663.
A short description of series [14]: method code SF-RC, from DOI: 10.1021/jm901332c, PMID: 19921956. To be noted: pH 7.4.
Experiment in series [15]: not given
The source holds these as a separate data set.

Experiment in series [16]: not given
This is another data set of the same source.

Series [17] in a line: method code SF-AS, from DOI: 10.1016/0006-2952(65)90227-3, PMID: 14322976. Conditions: pH 6.8.
Experiment in series [18]: not given
This is another data set of the same source.

Experiment in series [19]: not given
The source holds these as a separate data set.

Experiment in series [20]: not given
This is another data set of the same source.

Series [21] in a line: method code SF-MS, from DOI: 10.1016/j.fluid.2014.01.017. To be noted: pH 7.6.
A short description of series [22]: method code SF-HPLC, from DOI: 10.1002/jat.2550130210, PMID: 8486911. To be noted: pH 13.0.
Experiment in series [23]: not given
This is another data set of the same source.

Experiment in series [24]: not given
The source holds these as a separate data set.

A short description of series [25]: method code SF-AS, from DOI: 10.1021/jm00304a030, PMID: 5793164. To be noted: pH 7.4.
Series [26] can be described thus: method code SF, from Korenman, Y. (1975). Extraction of hydroxybenzoic acids and some of their derivatives from aqueous solution. Zh. Prikl. Khim., 48(6)1472-1474. To be noted: pH 2.0.
Series [27] can be described thus: method code SF-GLC, from DOI: 10.1007/bf00343116, PMID: 4026577.
Experiment in series [28]: not given
The source holds these as a separate data set.

The nature of series [29]: method code SF-AS, from DOI: 10.1039/ft9938903773.
Experiment in series [30]: not given
This is another data set of the same source.

Experiment in series [31]: not given
The source holds these as a separate data set.

The nature of series [32]: method code SF-RC, from DOI: 10.1002/ps.2780130506.
A short description of series [33]: method code SF-AS, from DOI: 10.1021/jm00069a002, PMID: 8355246. To be noted: pH 7.4.
Experiment in series [34]: not given
The source holds these as a separate data set.

The nature of series [35]: method code SF-AS, from DOI: 10.1007/bf02922495.
Series [36] is described as follows: method code SF-GLC, from DOI: 10.1021/j100260a019.
The nature of series [37]: method code SF-GLC,AS, from DOI: 10.2134/jeq1981.00472425001000030028x.
Experiment in series [38]: not given
This is another data set of the same source.

As usually defined, the logP is a log measure of how a compound divides between an organic and an aqueous phase. A higher logP goes with higher lipophilicity. Take `COc1c(O)c(Cl)c(Cl)c(Cl)c1Cl`: the logP in series [1] was determined as 4.42.

In series [2], `Oc1ccc(Cl)c(Cl)c1Cl` gave a lipophilicity (logP) of 3.8.

`O=C(OC1CCCCC1)n1cc(F)c(=O)[nH]c1=O`: the logD in series [3] (pH 4.0) worked out at 1.42.

Regarding `O=C(O)c1cccc(O)c1`, the logP turned out to be 1.39.

Turning to `Nc1ccc(O)c([N+](=O)[O-])c1`, in series [4], the logP is 0.96.

Consider `c1ccc(-c2ccccc2)cc1`, for which the logP in series [5] was 4.05.

Take `COC(=O)[C@@H]1CCCN1S(=O)(=O)N(CCCl)N=O`: the lipophilicity (logP) in series [6] is -0.19.

As to `COc1ccc(OC)c(C=O)c1`, the logP in series [7] came to 1.91.

In [8], `Nc1cc(Cl)c(Cl)cc1Cl` came in with a logP of 3.31.

Molecule `NS(=O)(=O)c1ccc(O)cc1` returned a logD in series [9] of 0.06.

Molecule `COCC(O)Cn1c(Br)cnc1[N+](=O)[O-]` (configuration not stated) yielded a logP in series [10] of 0.16.

Turning to `Oc1c(Cl)ccc(Cl)c1Cl`, in [2], the logP was 3.77.

As to `CCCn1c(=O)n(C)c(=O)c2nc[nH]c21`, the logD in series [11] is 1.02.

In series [12], `CN(C)c1cc[n+]([O-])cc1` showed a logP of -0.9.

The molecule `O=C(O)[C@H]1O[C@H](O)[C@H](O)[C@@H](O)[C@@H]1O` showed a logD in [13] (pH 1.0) of -2.57.

Molecule `Cn1cnc2c(Cl)ncnc21` came in with a logD in [14] of 0.38.

Take `CCC(=O)n1c(=O)[nH]cc(F)c1=O`: the logD in series [3] (pH 7.4) was -0.21.

`Oc1c(Cl)cccc1Cl`: the logP in series [15] turned out to be 2.92.

Regarding `CC(=O)CCCCn1c(=O)c2c(ncn2C)n(C)c1=O`, in series [16], the log partition coefficient (logP) is 0.29.

On to `CC(C)c1ccccc(=O)c1O`, for which, in series [17], the logD stood at 0.96.

On to `Cc1ccccc1[N+](=O)[O-]`, for which the log partition coefficient (logP) in series [18] turned out to be 2.17.

In series [19], `Cc1cccc(C(=O)O)n1` yielded a logP of -1.22.

With `NS(=O)(=O)c1nnc(-c2ccccc2Cl)s1`, in series [20], the logP stood at 1.43.

`CCCC/C=C/C=O`: the logD in [21] amounted to 2.06.

`CC(C)CNCC(C)C` registered a logD in series [22] of 2.67.

In turn, `Nc1ccc(F)cc1F` yielded a logP in series [5] of 1.56.

Molecule `Cn1c(=O)[nH]c(=O)c2nc[nH]c21` gave a logD in [11] of -0.72.

The molecule `CCCCCC(CCC)C(=O)O` (configuration not stated) registered a logP in series [23] of 3.2.

Consider `O=Cc1cc(O)ccc1O`, for which, in series [7], the logP was 0.54.

In turn, `O=Nc1ccc(O)c(=O)cc1` showed a logD in [17] of 0.83.

`CCOc1cc(Cl)c(Cl)c(Cl)c1`: the logP in series [24] came to 4.61.

The molecule `c1ccc2[nH]ncc2c1` registered a logD in series [25] of 1.82.

For the molecule `O=C(O)c1ccc(O)c(O)c1O`, the logD in series [26] stood at 1.05.

As to `N#CCCCCCC#N`, the logP in series [27] was 0.05.

Turning to `CCOc1cccc(O)c1`, in series [9], the logD is 1.98.

The molecule `CCN(CC)C(C)=O` showed a logP in series [18] of 0.37.

The molecule `c1ccc(-c2nnn[nH]2)cc1` had a logP in [28] of 1.5.

As for `O=C1C=CC(=O)c2c(O)ccc(O)c21`, the logP in series [29] came to 1.79.

For the molecule `Cc1cccc([N+](=O)[O-])c1`, the logP in series [30] was 2.4.

In series [16], `Cn1cnc2c1c(=O)[nH]c(=O)n2C` had a logP of -0.82.

Take `O=C(O)c1ccccc1Br`: the logP was determined as 2.19.

The molecule `CC(=O)c1ccccc1N` returned a log partition coefficient (logP) in [31] of 1.25.

For the molecule `CCC(c1ccccc1)c1c(O)c2ccccc2oc1=O` (configuration not stated), the log partition coefficient (logP) in series [13] worked out at 3.62.

For the molecule `COc1ccc(N)cc1`, the logP in [31] was 0.98.

In turn, `Brc1ccccc1-c1nnn[nH]1` showed a log partition coefficient (logP) in series [28] of 1.81.

Regarding `NC(=O)Nc1ccc(Cl)cc1`, the logP in series [32] is 1.8.

In turn, `Oc1c(Cl)c(Cl)cc(Cl)c1Cl` yielded a log partition coefficient (logP) in series [15] of 4.47.

On to `CCCCNC(=O)CCn1ccc(=O)c(O)c1C`, for which the logD in [33] was -0.1.

As to `O=C1Cc2ccccc2N1`, in series [25], the logD is 1.15.

For `N#Cc1ccccc1`, the logP in series [34] amounted to 1.5.

Regarding `N#CCCCCCCC#N`, in series [27], the logP turned out to be 0.59.

On to `COc1cc(Cl)c(Cl)c(Cl)c1`, for which, in series [24], the log partition coefficient (logP) worked out at 4.1.

In turn, `Cc1c(Cl)cccc1[N+](=O)[O-]` returned a logP in series [30] of 3.09.

`COCC(O)Cn1c([N+](=O)[O-])nc(Br)c1Br` (configuration not stated) displayed a logP in [10] of 1.02.

For `Nc1ccccc1N`, the logP in series [4] was 0.15.

In [34], `Cc1cccc(C)c1` yielded a logP of 3.37.

On to `CCc1[nH]ccc(=O)c1O`, for which the logD in [33] is 0.05.

As for `N#CC(C#N)=Cc1ccc(Br)o1`, the logP in [35] was 2.28.

`CC(C)COCC(C)C`: in series [36], the logP amounted to 2.78.

As to `Cn1cnc2c(Br)ncnc21`, the logD in [14] came to 0.52.

For the molecule `Nc1c([N+](=O)[O-])cc(C(F)(F)F)cc1[N+](=O)[O-]`, in series [37], the logP is 2.29.

In turn, `CSc1cccc(NC(N)=O)c1` returned a logP in series [32] of 1.57.

Molecule `Nc1c(Cl)c(Cl)cc(Cl)c1Cl` yielded a logP in series [8] of 4.06.

For the molecule `O=NN(CCCl)S(=O)(=O)N1CCCCC1`, the logP in series [6] was found to be 1.03.

`O=C1C=CC(=O)C=C1` came in with a logP in [29] of 0.3.

In [19], `O=C(O)c1cccc(C(=O)O)n1` yielded a logP of 0.45.

Take `O=C(O)c1cc(Br)ccc1O`: in [26], the logD amounted to 2.87.

`COc1cc(Cl)c(Cl)cc1O`: in series [1], the logP came to 3.19.

With `CC1CCC(C)O1` (configuration not stated), the logP in [36] came to 1.22.

As for `O=[N+]([O-])c1ccc(Cl)c(Cl)c1Cl`, the lipophilicity (logP) in [38] was 3.54.

`C=CCNCC=C` had a logD in series [22] of 1.08.

`O=[N+]([O-])c1ccc(CCBr)cc1`: the logP in [38] was found to be 2.9.

In turn, `Cc1ccc(C=C(C#N)C#N)o1` returned a logP in series [35] of 2.03.

In [12], `[O-][n+]1ccc(-c2ccccc2)cc1` displayed a logP of 0.93.

Take `CCCCCCCC=O`: in series [21], the logD was 2.53.

`CCC(CC)C(=O)O` gave a logP in series [23] of 1.68.

In [37], `CCCNc1c([N+](=O)[O-])cc(C(F)(F)F)cc1[N+](=O)[O-]` showed a lipophilicity (logP) of 3.65.
